Assay results published in patent US20240002388A1, “PYRIMIDINONE COMPOUNDS AND USES THEREOF” (HUTCHISON MEDIPHARMA LIMITED, priority 2020, published 2024).
pIC50: −log10 of the molar value.

system: L929 cell line (mouse fibroblastoma cell line); experiment: L929 cell viability assay (mTNF-α + Z-VAD-FMK induced necroptosis); assay type: cell-based; settings: L929 cells, mTNF-α 0.1 μg/mL + Z-VAD-FMK 5 μM, 20 hours, CellTiter-Glo
Method: L929 cell line (mouse fibroblastoma cell line): purchased from ATCC (American Type Culture Collection) Cell Bank, cultured in 5% CO2, 37° C. incubator, and MEM medium which contains L-Glutamine, with 10% FBS was used. • MEM medium: GIBCO, Cat #11095080; • Fetal bovine serum (FBS): GIBCO, Cat #10099-141C; • Dimethyl sulfoxide (DMSO): Sigma, Cat #D2650; • 0.25% Trypsin-EDTA: GIBCO, Cat #25200072; • Recombinant Mouse TNF-alpha Protein (mTNF-α): R&D system, Cat #410-MT-050; • Pan-Caspase inhibitor (Z-VAD-FMK): Selleckchem, Cat #S7023; • CellTiter-Glo 2.0 Cell Viability Assay kit: Promega, Cat #G9242; • Microwell plate reader: Envision, Perkin Elmer; • 96-well plate: Corning, Cat #3917.
The L929 cells at the logarithmic phase were taken out, and the supernatant was discarded. After trypsinization and cell shedding, 10% FBS-containing medium was added for neutralization, and the supernatant was discarded after centrifugation. The cells were re-suspended using 10% FBS-containing medium, adjusted to 7×10^4 cells/ml, added to 96-well microplate at 70 μL/well, i.e., 4.9×10^3 cells/well. Then the plate was incubated in a 5% CO2, 37° C. cell incubator overnight.
After incubating overnight, the 96-well plate was taken out, the medium was discarded, and the plate was washed with 1% FBS-containing MEM medium. Then 1% FBS-containing MEM medium was added at 70 μL/well, and the plate was cultured in a 5% CO2, 37° C. cell incubator. After incubating for 1 hour, the test compound was diluted to the corresponding concentrations using DMSO with 3-fold serial dilution, then the corresponding concentration of DMSO diluted solution was diluted into 1% FBS-containing MEM medium, and 10 μL/well of the diluted test compound with different concentrations (final concentrations of test compound were 10, 3.33, 1.11, 0.37, 0.12, 0.04, 0.014 and 0.005 μM, while final concentration of DMSO was 0.3%) or 10 μL/well control solution (3% DMSO) were added to the cell culture system respectively, with the total volume being 80 μL/well. Then 10 μL of Z-VAD-FMK solution diluted with 1% FBS-containing MEM medium (final concentration of 5 μM) or 10 μL of control solution (2.5% DMSO) was added to each well, with the total volume being 90 μL/well. The plate was incubated in a 5% CO2, 37° C. cell culture incubator for 1 hour.
After incubating for 1 hour, 10 μL of recombinant mouse TNF-α protein solution diluted with 1% FBS-containing MEM medium (final concentration of 0.1 μg/mL) or 10 μL control solution (1% FBS-containing MEM medium) was added to each well. The plate was incubated in a 5% CO2, 37° C. cell culture incubator for 20 hours.
The cell culture plate was taken out from the incubator, and left to stand at room temperature for 30 minutes. Meanwhile, CellTiter-Glo viability assay kit was put from freezer to room temperature, and 50 μL of CellTiter-Glo reagent was added to all wells, the plate was shaken for 1 minutes, protected from light at room temperature for 10 minutes then read the plate on Envision to get the luminescence signal.
The 96-well plate in the dark was taken out, and the chemiluminescence was determined using the Envision microwell plate reader as the signal value of each well.
The mean signal value of the wells of the mixed solution of recombinant mouse TNF-alpha protein (final concentration of 0.1 μg/mL) and Pan-Caspase inhibitor (final concentration of 5 μM) was used as the lower value, and the mean signal value of the wells without stimulation was used as the upper value. According to the signal value of each well, the inhibition rate of each concentration of every compound was calculated, and the IC50 value of compound was obtained by Model 205 in XL-Fit 5.3 software (ID Business Solutions Limited).
Inhibition rate %=[(Luminescence readout of treated compound−Luminescence readout of positive control)/(Luminescence readout of negative control−Luminescence readout of positive control)]×100%, wherein

Question: How did the pIC50 turn out when `CC(C)n1ncc2cnc(C(=O)NC3(c4ccc(-c5cncn([C@H]6C[C@@H](F)C6)c5=O)cc4)CC3)nc21` [Compound 88, N-(1-(4-(1-(cis-3-fluorocyclobutyl)-6-oxo-1,6-dihydropyrimidin-5-yl)phenyl)cyclopropyl)-1-i-propyl-1H-pyrazolo[3,4-d]pyrimidine-6-carboxamide] was run?
Answer: The pIC50 was 6.47.

same assay, conditions: Mus musculus, L929, 20 h, L929 cells, mTNF-α 0.1 μg/mL + Z-VAD-FMK 5 μM, CellTiter-Glo

Question: With `CC(C)n1ncc2cnc(C(=O)NC3(c4ccc(-c5cncn([C@@H](C)C6CC6)c5=O)cc4)CC3)nc21` [Compound 85, (S)—N-(1-(4-(1-(1-cyclopropylethyl)-6-oxo-1,6-dihydropyrimidin-5-yl)phenyl)cyclopropyl)-1-i-propyl-1H-pyrazolo[3,4-d]pyrimidine-6-carboxamide] as the molecule, how does the pIC50 read?
Answer: Its pIC50 is 7.89.

Question: How did the pIC50 turn out when `Cn1cncc(-c2ccc(C3(NC(=O)c4cc(Cc5ccccc5)on4)CC3)cc2)c1=O` [Compound 5] was run?
Answer: The pIC50 was 5.60.

Question: `CC(C)n1cncc(-c2ccc(C3(NC(=O)c4ncc5cnn(CC6CC6)c5n4)CC3)cc2F)c1=O` [Compound 73] was tested. Which pIC50 did it give?
Answer: Its pIC50 is 7.39.

Question: How did the pIC50 turn out when `CC(C)n1ncc2cnc(C(=O)NC3(c4ccc(-c5cncn(C6CCC6)c5=O)cc4)CC3)nc21` [Compound 42] was run?
Answer: Its pIC50 is 6.92.

Question: `CC(C)n1cncc(-c2ccc(C3(NC(=O)c4ncc5cnn(C(C)C)c5n4)CC3)cc2F)c1=O` [Compound 35] was tested. Which pIC50 did it give?
Answer: The pIC50 was 6.81.

Question: With `CC(C)n1cncc(-c2ccc(C3(NC(=O)c4ncc5cnn(-c6ccccn6)c5n4)CC3)cc2)c1=O` [Compound 63] as the molecule, how does the pIC50 read?
Answer: Its pIC50 is 5.03.

Question: With `C[C@H](c1ccccc1)n1cnc(C(=O)NC2(c3ccc(-c4cncn(C)c4=O)cc3)CC2)n1` [Compound 55, (R)—N-(1-(4-(1-methyl-6-oxo-1,6-dihydropyrimidin-5-yl)phenyl)cyclopropyl)-1-(1-phenylethyl)-1H-1,2,4-triazole-3-carboxamide] as the molecule, how does the pIC50 read?
Answer: Its pIC50 is 6.59.

Question: With `Cn1cncc(-c2ccc(C3(NC(=O)c4ncn(Cc5ccccc5)n4)CC3)cc2)c1=O` [Compound 8] as the molecule, how does the pIC50 read?
Answer: The pIC50 was 5.75.

Question: With `CC(C)n1ncc2cnc(C(=O)NC3(c4ccc(-c5cncn(C)c5=O)cn4)CC3)nc21` [Compound 2] as the molecule, how does the pIC50 read?
Answer: Its pIC50 is 5.13.

Question: With `CCn1cncc(-c2ccc(C3(NC(=O)c4ncc5cnn(C(C)C)c5n4)CC3)cc2)c1=O` [Compound 37] as the molecule, how does the pIC50 read?
Answer: Its pIC50 is 6.73.

Question: How did the pIC50 turn out when `CC(C)n1ncc2cnc(C(=O)NC3(c4ccc(-c5cncn([C@@H](C)C(F)(F)F)c5=O)cc4F)CC3)nc21` (stereo in doubt) [Compound 47] was run?
Answer: The pIC50 was 7.62.

Question: `CC[C@H](C)n1cncc(-c2ccc(C3(NC(=O)c4ncc5cnn(C(C)C)c5n4)CC3)cc2)c1=O` [Compound 43] was tested. Which pIC50 did it give?
Answer: Its pIC50 is 7.80.

Question: `CC(C)n1cncc(-c2ccc(C3(NC(=O)c4ncc5cnn([C@H](C)C6CC6)c5n4)CC3)cc2)c1=O` [Compound 89, (R)-1-(1-cyclopropylethyl)-N-(1-(4-(1-i-propyl-6-oxo-1,6-dihydropyrimidin-5-yl)phenyl)cyclopropyl)-1H-pyrazolo[3,4-d]pyrimidine-6-carboxamide] was tested. Which pIC50 did it give?
Answer: The pIC50 was 7.42.

Question: With `C[C@@H](n1cncc(-c2ccc(C3(NC(=O)c4ncc5cnn(CC6CC6)c5n4)CC3)cc2)c1=O)C(F)(F)F` [Compound 70] as the molecule, how does the pIC50 read?
Answer: The pIC50 was 7.92.

Question: With `CC(C)n1ncc2cnc(C(=O)NC3(c4ccc(-c5cncn(C6CCOC6)c5=O)cc4)CC3)nc21` (stereo in doubt) [Compound 81, (S)-1-i-propyl-N-(1-(4-(6-oxo-1-(tetrahydrofuran-3-yl)-1,6-dihydropyrimidin-5-yl)phenyl)cyclopropyl)-1H-pyrazolo[3,4-d]pyrimidine-6-carboxamide] as the molecule, how does the pIC50 read?
Answer: The pIC50 was 6.59.

Question: `CC(C)n1ncc2cnc(C(=O)NC3(c4ccc(-c5cncn(CC6CC6)c5=O)c(F)c4F)CC3)nc21` [Compound 95] was tested. Which pIC50 did it give?
Answer: Its pIC50 is 6.84.

Question: How did the pIC50 turn out when `CC(C)n1ncc2cnc(C(=O)NC3(c4ccc(-c5cncn(CC6CCC6)c5=O)cc4)CC3)nc21` [Compound 66] was run?
Answer: The pIC50 was 7.28.

Question: `CC(C)n1ncc2cnc(C(=O)NC3(c4ccc(-c5cncn(C6CC(F)(F)C6)c5=O)cc4)CC3)nc21` [Compound 65] was tested. Which pIC50 did it give?
Answer: The pIC50 was 6.06.

Question: With `CC(C)n1ncc2cnc(C(=O)NC3(c4ccc(-c5cncn(C6(C)CC6)c5=O)cc4)CC3)nc21` [Compound 78] as the molecule, how does the pIC50 read?
Answer: Its pIC50 is 7.36.

Question: `CC(C)n1cncc(-c2cc(F)c(C3(NC(=O)c4ncc5cnn(C(C)C)c5n4)CC3)c(F)c2)c1=O` [Compound 92] was tested. Which pIC50 did it give?
Answer: Its pIC50 is 5.50.

Question: How did the pIC50 turn out when `CC(C#N)n1cncc(-c2ccc(C3(NC(=O)c4ncc5cnn(C(C)C)c5n4)CC3)cc2)c1=O` (stereo in doubt) [Compound 83, (S)—N-(1-(4-(1-(1-cyanoethyl)-6-oxo-1,6-dihydropyrimidin-5-yl)phenyl)cyclopropyl)-1-i-propyl-1H-pyrazolo[3,4-d]pyrimidine-6-carboxamide] was run?
Answer: Its pIC50 is 6.70.

Question: With `CC(C)n1cncc(-c2ccc(C3(NC(=O)c4nc5n(n4)[C@H](c4ccccc4)CC5)CC3)cc2)c1=O` [Compound 16] as the molecule, how does the pIC50 read?
Answer: Its pIC50 is 8.15.

Question: With `CC(C)n1cncc(-c2ccc(C3(NC(=O)c4ncc5cnn(CC6CC6)c5n4)CC3)c(F)c2)c1=O` [Compound 72] as the molecule, how does the pIC50 read?
Answer: Its pIC50 is 7.80.

Question: How did the pIC50 turn out when `CC(C)n1cncc(-c2ccc(C3(NC(=O)c4ncc5cnn(CC6CC6)c5n4)CC3)cc2)c1=O` [Compound 61] was run?
Answer: Its pIC50 is 7.32.

Question: `CC(C)n1ncc2cnc(C(=O)NC3(c4ccc(-c5cncn(C)c5=O)c(F)c4)CC3)nc21` [Compound 23, N-(1-(3-fluoro-4-(1-methyl-6-oxo-1,6-dihydropyrimidin-5-yl)phenyl)cyclopropyl)-1-isopropyl-1H-pyrazolo[3,4-d]pyrimidine-6-carboxamide] was tested. Which pIC50 did it give?
Answer: The pIC50 was 5.57.

Question: How did the pIC50 turn out when `CC(C)n1ncc2cnc(C(=O)NC3(c4ccc(-c5cncn(C6CCOCC6)c5=O)cc4)CC3)nc21` [Compound 77] was run?
Answer: The pIC50 was 6.82.

Question: How did the pIC50 turn out when `CC(C)n1ncc2cnc(C(=O)NC3(c4ccc(-c5cncn(C6CCOC6)c5=O)cc4)CC3)nc21` (stereo in doubt) [Compound 80, (R)-1-i-propyl-N-(1-(4-(6-oxo-1-(tetrahydrofuran-3-yl)-1,6-dihydropyrimidin-5-yl)phenyl)cyclopropyl)-1H-pyrazolo[3,4-d]pyrimidine-6-carboxamide] was run?
Answer: The pIC50 was 6.53.

Question: `C[C@H](n1cncc(-c2ccc(C3(NC(=O)c4ncc5cnn(CC6CC6)c5n4)CC3)cc2)c1=O)C(F)(F)F` [Compound 68] was tested. Which pIC50 did it give?
Answer: The pIC50 was 7.49.

Question: With `CC(C)n1ncc2cnc(C(=O)NC3(c4ccc(-c5cncn(CC6CC6)c5=O)cc4)CC3)nc21` [Compound 36] as the molecule, how does the pIC50 read?
Answer: The pIC50 was 7.08.

Question: `CC(C)n1cncc(-c2ccc(C3(NC(=O)c4ncc5cnn(C(C)C)c5n4)CC3)c(F)c2Cl)c1=O` [Compound 91] was tested. Which pIC50 did it give?
Answer: Its pIC50 is 6.10.

Question: `CC(C)n1cncc(-c2ccc(C3(NC(=O)c4ncn(Cc5ccccc5)n4)CC3)cc2)c1=O` [Compound 17] was tested. Which pIC50 did it give?
Answer: Its pIC50 is 7.60.

Question: `CC(C)n1ncc2cnc(C(=O)NC3(c4ccc(-c5cncn(C)c5=O)cc4)CC3)cc21` [Compound 28, 1-isopropyl-N-(1-(4-(1-methyl-6-oxo-1,6-dihydropyrimidin-5-yl)phenyl)cyclopropyl)-1H-pyrazolo[4,3-c]pyridine-6-carboxamide] was tested. Which pIC50 did it give?
Answer: Its pIC50 is 5.24.

Question: With `CC(C)n1ncc2cnc(C(=O)NC3(c4ccc(-c5cncn(C)c5=O)c(Cl)c4)CC3)nc21` [Compound 25] as the molecule, how does the pIC50 read?
Answer: Its pIC50 is 5.12.

Question: How did the pIC50 turn out when `CC(C)n1cncc(-c2ccc(C3(NC(=O)c4ncc5cnn(C(C)C6CC6)c5n4)CC3)cc2)c1=O` (racemic) [Compound 59, 1-(1-cyclopropylethyl)-N-(1-(4-(1-i-propyl-6-oxo-1,6-dihydropyrimidin-5-yl)phenyl)cyclopropyl)-1H-pyrazolo[3,4-d]pyrimidine-6-carboxamide] was run?
Answer: The pIC50 was 7.77.
